Test results taken from patent US12570648B2, “6,7-dihydro-5H-pyrido[2,3-c]pyridazine derivatives and related compounds as Bcl-xL protein inhibitors and pro-apoptotic agents for treating cancer” (LES LABORATOIRES SERVIER, priority 2019, dated 2026).

How the values were obtained:
[1] = system: MOLT-4 cells; assay: MOLT-4 cell viability using MTT assay; format: cell-based; settings: Homo sapiens, MOLT-4, 48 h, 48 h exposure
Description: MTT colorimetric assay is based on the mitochondrial reduction of tetrazolium salt by living cells.
Cells were cultured at 37° C. in a humidified atmosphere containing 5% CO2. […] At the end of incubation time, 15 μL of MTT solution (5 mg/ml) were added per well and the cells were incubated for another 4 h. […] IC50s were calculated using standard four-parametric curve fitting.

[2] = system: H146 cells; assay: H146 cell viability using MTT assay; format: cell-based; settings: Homo sapiens, NCI-H146, 48 h exposure
Description: MTT colorimetric assay is based on the mitochondrial reduction of tetrazolium salt by living cells. The viable cell number is proportional to the production of formazan salts, which can be read spectrophotometrically at 540 nm.
MOLT-4 and H146 cells were purchased from ATCC and cultivated in RPMI 1640 supplemented with 10% heat inactivated fetal bovine serum, penicillin (100 IU/ml), streptomycin (100 μg/ml) and L-glutamine (2 mM). Cells were cultured at 37° C. in a humidified atmosphere containing 5% CO2. Cells were seeded in 96 microwell plates (150p per well) and exposed to the compounds for 48 h (3.16 fold serially diluted; 9 concentrations each, triplicates). At the end of incubation time, 15 μL of MTT solution (5 mg/ml) were added per well and the cells were incubated for another 4 h. Then, 100 μL of 10% Sodium Dodecyl Sulfate (SDS)/HCl 10 mM were added per well and the plate was incubated overnight, before measurement of optical density at 540 nm. IC50s were calculated using standard four-parametric curve fitting.

[3] = target: His-His-(EK)-hsBCLXL(2-197)[N197C] (Homo sapiens (Human), UniProt Q07817, N197C); assay: Fluorescence quenching assay; format: binding; settings: 1 nM Cy5-labelled protein, 400 nM PUMA peptide, 2 hours at 23° C.; KI determined from IC50
How it was run: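 Cy5-labelled BCL-xL (1 nM) with TQ5WS quencher-labelled PUMA peptide (400 nM); displacement by compound (11-point dilution) raises fluorescence. Buffer 10 mM HEPES, 150 mM NaCl, 0.05% Tween 20, pH 7.4, 5% DMSO; 2 h at 23° C, Ex 620/Em 680 nm. Ki derived from IC50.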

Sequence of His-His-(EK)-hsBCLXL(2-197)[N197C] (Q07817 2-197 N197C): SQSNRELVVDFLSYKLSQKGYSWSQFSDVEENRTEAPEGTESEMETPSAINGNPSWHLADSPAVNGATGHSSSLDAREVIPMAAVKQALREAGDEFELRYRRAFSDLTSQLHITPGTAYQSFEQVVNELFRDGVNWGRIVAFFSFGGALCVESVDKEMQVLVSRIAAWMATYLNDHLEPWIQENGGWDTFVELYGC

| Structure (SMILES) | IC50 [1] [nM] | IC50 [2] [nM] | Ki [3] [nM] |
| --- | --- | --- | --- |
| Cc1c(Nc2nc3ccccc3s2)nnc2c1CCCN2c1nc(C(=O)O)c(CCCOc2ccc(C#CCN3C[C@H]4C[C@H]4C3)cc2F)s1 [Example 56, 5-[3-[4-[3-[(1S,5R)-3-Azabicyclo[3.1.0]hexan-3-yl]prop-1-ynyl]-2-fluoro-phenoxy]propyl]-2-[3-(1,3-benzothiazol-2-ylamino)-4-methyl-6,7-dihydro-5H-pyrido[2,3-c]pyridazin-8-yl]thiazole-4-carboxylic acid] | 1.46 | 12.9 | 0.049 |
| Cc1c(Nc2nc3ccccc3s2)nnc2c1CCCN2c1nc(C(=O)O)c(CCCOc2ccc(C#CCN3CCC(N4CCCCC4)CC3)cc2F)s1 [Example 57, 2-[3-(1,3-Benzothiazol-2-ylamino)-4-methyl-6,7-dihydro-5H-pyrido[2,3-c]pyridazin-8-yl]-5-[3-[2-fluoro-4-[3-[4-(1-piperidyl)-1-piperidyl]prop-1-ynyl]phenoxy]propyl]thiazole-4-carboxylic acid] | 0.592 | 5.54 | 0.003 |
| Cc1c(Nc2nc3ccccc3s2)nnc2c1CCCN2c1nc(C(=O)O)c(CCCOc2ccc(C#CCN3CCC4(CC3)CNC(=O)C4)cc2F)s1 [Example 58, 2-[3-(1,3-Benzothiazol-2-ylamino)-4-methyl-6,7-dihydro-5H-pyrido[2,3-c]pyridazin-8-yl]-5-[3-[2-fluoro-4-[3-(3-oxo-2,8-diazaspiro[4.5]decan-8-yl)prop-1-ynyl]phenoxy]propyl]thiazole-4-carboxylic acid] | 0.817 | 6.65 | 0.0048 |
| Cc1c(Nc2nc3ccccc3s2)nnc2c1CCCN2c1nc(C(=O)O)c(CCCOc2ccc(C#CCN(C)C)cc2Br)s1 [Example 59, 2-{3-[(1,3-Benzothiazol-2-yl)amino]-4-methyl-5H,6H,7H,8H-pyrido[2,3-c]pyridazin-8-yl}-5-(3-{2-bromo-4-[3-(dimethylamino)prop-1-yn-1-yl]phenoxy}propyl)-1,3-thiazole-4-carboxylic acid] | 3.36 | 17.3 | 0.023 |
| Cc1c(Nc2nc3ccccc3s2)nnc2c1CCCN2c1nc(C(=O)O)c(CCCOc2ccc(N3CCN(C)CC3)cc2F)s1 [Example 60, 2-{3-[(1,3-Benzothiazol-2-yl)amino]-4-methyl-5H,6H,7H,8H-pyrido[2,3-c]pyridazin-8-yl}-5-{3-[2-fluoro-4-(4-methylpiperazin-1-yl)phenoxy]propyl}-1,3-thiazole-4-carboxylic acid] | 2.75 | 8.86 | 0.0089 |
| Cc1c(Nc2nc3ccccc3s2)nnc2c1CCCN2c1nc(C(=O)O)c(CCCOc2cc3c(cc2F)c(CN(C)C)cn3C)s1 [Example 61, 2-{3-[(1,3-Benzothiazol-2-yl)amino]-4-methyl-5H,6H,7H,8H-pyrido[2,3-c]pyridazin-8-yl}-5-[3-({3-[(dimethylamino)methyl]-5-fluoro-1-methyl-1H-indol-6-yl}oxy)propyl]-1,3-thiazole-4-carboxylic acid] | 122 | 120 | 0.033 |
| Cc1c(Nc2nc3ccccc3s2)nnc2c1CCCN2c1nc(C(=O)O)c(CCCOc2ccc(CCCCN(C)C)cc2F)s1 [Example 62, 2-{3-[(1,3-Benzothiazol-2-yl)amino]-4-methyl-5H,6H,7H,8H-pyrido[2,3-c]pyridazin-8-yl}-5-(3-{4-[4-(dimethylamino)butyl]-2-fluorophenoxy}propyl)-1,3-thiazole-4-carboxylic acid] | 20.2 | 69 | 0.0034 |
| CNCCc1ccc(OCCCc2sc(N3CCCc4c3nnc(Nc3nc5ccccc5s3)c4C)nc2C(=O)O)c(F)c1 [Example 64, 2-{3-[(1,3-Benzothiazol-2-yl)amino]-4-methyl-5H,6H,7H,8H-pyrido[2,3-c]pyridazin-8-yl}-5-(3-{2-fluoro-4-[2-(methylamino)ethyl]phenoxy}propyl)-1,3-thiazole-4-carboxylic acid] | 30.5 | 11.8 | 0.0052 |
| CNCCOC1Cc2c(nnc(Nc3nc4ccccc4s3)c2C)N(c2nc(C(=O)O)c(CCCOc3ccc(C#CCN(C)C)cc3F)s2)C1 (stereo not drawn) [Example 65, 2-{3-[(1,3-Benzothiazol-2-yl)amino]-4-methyl-6-[2-(methylamino)ethoxy]-5H,6H,7H,8H-pyrido[2,3-c]pyridazin-8-yl}-5-(3-{4-[3-(dimethylamino)prop-1-yn-1-yl]-2-fluorophenoxy}propyl)-1,3-thiazole-4-carboxylic acid] | 26.6 | 3.98 | 0.005 |
| Cc1c(Nc2nc3ccccc3s2)nnc2c1CCCN2c1nc(C(=O)O)c(CCCOc2cc3c(cc2F)CCN(C)C3)s1 [Example 66, 2-{3-[(1,3-Benzothiazol-2-yl)amino]-4-methyl-5H,6H,7H,8H-pyrido[2,3-c]pyridazin-8-yl}-5-{3-[(6-fluoro-2-methyl-1,2,3,4-tetrahydroisoquinolin-7-yl)oxy]propyl}-1,3-thiazole-4-carboxylic acid] | 2.01 | 8.22 | 0.012 |
| Cc1c(Nc2nc3ccccc3s2)nnc2c1CCCN2c1nc(C(=O)O)c(CCCOc2ccc(CCCN3CCC3)cc2F)s1 [Example 67, 5-[3-[4-[3-(Azetidin-1-yl)propyl]-2-fluoro-phenoxy]propyl]-2-[3-(1,3-benzothiazol-2-ylamino)-4-methyl-6,7-dihydro-5H-pyrido[2,3-c]pyridazin-8-yl]thiazole-4-carboxylic acid] | 7.4 | 14.6 | 0.0032 |
| Cc1c(Nc2nc3ccccc3s2)nnc2c1CCCN2c1nc(C(=O)O)c(CCCOc2ccc(CCCN3CCN(C)CC3)cc2F)s1 [Example 68, 2-[3-(1,3-Benzothiazol-2-ylamino)-4-methyl-6,7-dihydro-5H-pyrido[2,3-c]pyridazin-8-yl]-5-[3-[2-fluoro-4-[3-(4-methylpiperazin-1-yl)propyl]phenoxy]propyl]thiazole-4-carboxylic acid] | 2.91 | 10.4 | 0.0038 |
| Cc1c(Nc2nc3ccccc3s2)nnc2c1CCCN2c1nc(C(=O)O)c(CCCOc2ccc(CCCN3CCOCC3)cc2F)s1 [Example 70, 2-[3-(1,3-Benzothiazol-2-ylamino)-4-methyl-6,7-dihydro-5H-pyrido[2,3-c]pyridazin-8-yl]-5-[3-[2-fluoro-4-(3-morpholinopropyl)phenoxy]propyl]thiazole-4-carboxylic acid] | 3.08 | 16.9 | 0.017 |
| Cc1c(Nc2nc3ccccc3s2)nnc2c1CCCN2c1nc(C(=O)O)c(CCCOc2ccc(CCCN3CCCCC3)cc2F)s1 [Example 71, 2-[3-(1,3-Benzothiazol-2-ylamino)-4-methyl-6,7-dihydro-5H-pyrido[2,3-c]pyridazin-8-yl]-5-[3-[2-fluoro-4-[3-(1-piperidyl)propyl]phenoxy]propyl]thiazole-4-carboxylic acid] | 2.11 | 9.3 | 0.0045 |
| Cc1c(Nc2nc3ccccc3s2)nnc2c1CCCN2c1nc(C(=O)O)c(CCCOc2ccc(CCCN3CCC4(CC3)CNC(=O)C4)cc2F)s1 [Example 73, 2-[3-(1,3-Benzothiazol-2-ylamino)-4-methyl-6,7-dihydro-5H-pyrido[2,3-c]pyridazin-8-yl]-5-[3-[2-fluoro-4-[3-(3-oxo-2,8-diazaspiro[4.5]decan-8-yl)propyl]phenoxy]propyl]thiazole-4-carboxylic acid] | 6.54 | 14.7 | 0.0025 |
